Assay results published in ChEMBL document CHEMBL1201862, “PubChem BioAssay data set” (2004).
Activity calls are given as the source filed them. Cut-off read from the data, not from the text of the source: actives have a measured IC50 and inactives only a lower limit.

Each molecule was assayed against Envelope glycoprotein gp160 (Human immunodeficiency virus 1, UniProt Q6QLK5) (assay: cell-free HIV fusion peptide-binding blockers – biochemical, uHTS, fluorescence dequenching, […] (AID 1986)).
Envelope glycoprotein gp160, sequence (Q6QLK5 whole entry, the tested form may be a part): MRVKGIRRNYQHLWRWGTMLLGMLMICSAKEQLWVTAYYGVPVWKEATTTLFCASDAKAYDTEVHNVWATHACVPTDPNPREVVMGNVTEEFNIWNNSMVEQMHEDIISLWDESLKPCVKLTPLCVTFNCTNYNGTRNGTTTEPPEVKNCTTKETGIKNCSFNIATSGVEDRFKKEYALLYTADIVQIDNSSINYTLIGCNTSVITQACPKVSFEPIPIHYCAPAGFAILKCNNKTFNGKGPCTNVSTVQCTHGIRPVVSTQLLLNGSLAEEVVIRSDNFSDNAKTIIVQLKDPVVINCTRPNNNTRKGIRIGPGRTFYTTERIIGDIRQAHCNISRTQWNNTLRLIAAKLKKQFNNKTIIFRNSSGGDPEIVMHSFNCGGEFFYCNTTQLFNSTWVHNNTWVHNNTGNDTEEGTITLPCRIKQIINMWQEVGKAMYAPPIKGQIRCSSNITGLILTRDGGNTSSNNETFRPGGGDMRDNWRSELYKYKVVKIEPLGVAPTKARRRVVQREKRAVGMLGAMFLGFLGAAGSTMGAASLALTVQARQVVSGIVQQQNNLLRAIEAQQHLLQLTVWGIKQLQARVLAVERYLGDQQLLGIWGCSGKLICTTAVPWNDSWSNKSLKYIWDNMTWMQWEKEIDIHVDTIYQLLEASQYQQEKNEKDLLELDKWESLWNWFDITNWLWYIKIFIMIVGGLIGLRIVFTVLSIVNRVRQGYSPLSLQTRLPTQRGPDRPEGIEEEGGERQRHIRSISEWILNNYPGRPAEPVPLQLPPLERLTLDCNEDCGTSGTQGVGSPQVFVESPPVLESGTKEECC
For `COc1cc(/C=C2/C(=O)NN(c3ccc(Cl)cc3)C2=O)ccc1OC(=O)c1ccco1`, the IC50 was 11.8 µM (active).
With `Cc1ccccc1N/N=C/c1sc(=O)n(Cc2cccc(C(=O)O)c2)c1Cl` the IC50 was 15.6 µM (active).
For `O=C(O)CCn1cc(/C=C/C(=O)c2ccc(Cl)cc2)c(-c2ccc(Br)cc2)n1`, the IC50 was 21.4 µM (active).
For `CCOC(=O)c1sc(N2C(=O)C(O)=C(C(=O)c3ccco3)C2c2cccc([N+](=O)[O-])c2)nc1C` (stereo unspecified), the IC50 was 19 µM (active).
For `COc1ccccc1/C=C1\SC(=S)N(CCC(=O)Nc2ccc(C(=O)O)c(O)c2)C1=O`, the IC50 was 14.5 µM (active).
For `O=C(O)CN1C(=O)/C(=C\c2cc(Br)ccc2OCc2ccc(Cl)cc2)SC1=S`, the IC50 was 14.3 µM (active).
